In patent publication US4469704A, “2,3-Butanediol diester derivatives, process for producing the same, and an antiulcer drug containing the same” (SS Pharmaceutical Co., Ltd., priority 1980, dated 1984):
Read-outs that look alike come from different tables or passages of the source.

Assays:
ulcer = test: Antiulcer action: inhibition of indomethacin-induced gastric ulcer (ulcer index) in rats; assay type: in vivo, Wister male rats; settings: Rattus norvegicus, 1 h before indomethacin (25 mg/kg orally), read-out: Inhibition ratio
Experimental: Wister male rats each weighing about 200 g were given, after fasting for 24 hours, orally 25 mg/kg of indomethacin suspended in 1% aq. solution of sodium carboxymethylcellulose. Five hours later, 1 ml of physiological saline containing 2% brilliant blue was injected intravenously on their tails, and 10 minutes later, they were slaughtered and their stomachs were removed. After fixation by injecting 12 ml of 1% formalin aq. solution, the stomachs were extended on a flat plate and the injured parts on the stomach was measured with slide calipers. The sum of the lengths in mm was regarded as the ulcer index.
The test compound was emulsified or suspended in physiological saline containing one drop of polysolvate 80, and this was given orally or subcutaneously on the back one hour before administration of indomethacin.
The ulcer inhibition ratio was obtained from the following formula.
Inhibition ratio (%)=A/B×100
A: (ulcer index of control group)--(ulcer index of test group given the test compound)
B: (ulcer index of control group)

[1] = Acute toxicity, intraperitoneal, 7 days observation; assay type: in vivo; settings: mouse, ip; ddy male mice, intraperitoneally, dissolved in cotton seed oil, observation for seven days
Experimental: (§1) ddy male mice, arranged in groups each consisting of five mice, were given intraperitoneally 1000 mg/kg of the test compounds Nos. 1-4, 8-10, 14-18, 21, 22, 24, 25, 28, 31, 34, 35, 37, 45, 46, 48, 54, 57, 60, 62, 64, 68, 70, and 71 (as shown in Table 1) dissolved in cotton seed oil.

ddy male mice = test: as above; assay type: in vivo; settings: 1000 mg/kg intraperitoneally, groups of five ddy male mice
Experimental: as §1

tumor = settings: Japanese Patent Publication No. 36-13349; cited from earlier work

## CCC=CCC=CCC=CCCCCCCCC(=O)OC(C)C(C)OC(=O)CCCCCCCC=CCC=CCC=CCC (centres unmarked) [compound 16]
ulcer; sc, subcutaneously, 5 rats
  inhibition in vivo at 200 mg/kg: 86%

## CCCCCCCCCCC(=O)OC(C)C(C)OC(=O)c1ccccc1 (centres unmarked) [compound 64]
[1]
  LD50 at 168 h: > 1000 mg/kg
Ddy male mice
  survival / anomaly after seven days: all the mice lived without any anomaly
ulcer; sc, subcutaneously, 5 rats
  inhibition in vivo at 200 mg/kg: 41.3%

## CCCCCCCCCCC(=O)OC(C)C(C)OC(=O)CCCCC (centres unmarked) [compound 17]
ulcer; sc, subcutaneously, 5 rats
  inhibition in vivo at 200 mg/kg: 37%

## CCCCCC(=O)OC(C)C(C)OC(=O)c1cc(OC)c(OC)c(OC)c1 (centres unmarked) [Compound No. 62]
[1]
  LD50 at 168 h: > 1000 mg/kg
Ddy male mice
  survival / anomaly after seven days: all the mice lived without any anomaly
ulcer; sc, subcutaneously, 5 rats
  inhibition in vivo at 200 mg/kg: 50%

## CCCCCCCCCCC(=O)OC(C)C(C)OC(=O)CCCCCCCCCC (centres unmarked) [Compound No. 4]
ulcer; sc, subcutaneously, 5 rats
  inhibition in vivo at 200 mg/kg: 74%

## CCCCCCCCCCC(=O)OC(C)C(C)OC(=O)C=Cc1ccc(OC)cc1 (centres unmarked) [Compound No. 35]
[1]
  LD50 at 168 h: > 1000 mg/kg
Ddy male mice
  survival / anomaly after seven days: all the mice lived without any anomaly
ulcer; sc, subcutaneously, 5 rats
  inhibition in vivo at 200 mg/kg: 77%

## CCCCCCCCCC(=O)OC(C)C(C)OC(=O)C=Cc1ccccc1 (centres unmarked) [Compound No. 25]
[1]
  LD50 at 168 h: > 1000 mg/kg
Ddy male mice
  survival / anomaly after seven days: all the mice lived without any anomaly
ulcer; sc, subcutaneously, 5 rats
  inhibition in vivo at 200 mg/kg: 95%

## CCCCCC(=O)OC(C)C(C)OC(=O)C=Cc1ccc(Cl)cc1 (centres unmarked) [compound 37]
[1]
  LD50 at 168 h: > 1000 mg/kg
Ddy male mice
  survival / anomaly after seven days: all the mice lived without any anomaly
ulcer; sc, subcutaneously, 5 rats
  inhibition in vivo at 200 mg/kg: 85%

## CCCCCCCCC(=O)OC(C)C(C)OC(=O)C=Cc1ccccc1 (centres unmarked) [compound 24]
[1]
  LD50 at 168 h: > 1000 mg/kg
Ddy male mice
  survival / anomaly after seven days: all the mice lived without any anomaly
ulcer; sc, subcutaneously, 5 rats
  inhibition in vivo at 200 mg/kg: 90%

## CCCCCCCCCCCCCC(=O)OC(C)C(C)OC(=O)CCCCCCCCCCCCC (centres unmarked) [Compound No. 6]
ulcer; sc, subcutaneously, 5 rats
  inhibition in vivo at 200 mg/kg: 57%

## CCCCCC(=O)OC(C)C(C)OC(=O)C=Cc1ccccc1 (centres unmarked) [Compound No. 22]
[1]
  LD50 at 168 h: > 1000 mg/kg
Ddy male mice
  survival / anomaly after seven days: all the mice lived without any anomaly
ulcer; sc, subcutaneously, 5 rats
  inhibition in vivo at 200 mg/kg: 91%

## CCCCCCCCC(=O)OC(C)C(C)OC(=O)CCCCCCCC (centres unmarked) [Compound No. 2]
ulcer; sc, subcutaneously, 5 rats
  inhibition in vivo at 200 mg/kg: 90%

## CCCCCCCC(=O)OC(C)C(C)OC(=O)CCCCCCC (centres unmarked) [Compound No. 1]
ulcer; sc, subcutaneously, 5 rats
  inhibition in vivo at 200 mg/kg: 92%

## CCCCCCCC(=O)OC(C)C(C)OC(=O)C(C#N)=Cc1ccccc1 (centres unmarked) [compound 45]
[1]
  LD50 at 168 h: > 1000 mg/kg
Ddy male mice
  survival / anomaly after seven days: all the mice lived without any anomaly
ulcer; sc, subcutaneously, 5 rats
  inhibition in vivo at 200 mg/kg: 84%

## C=CCCCCCCCCC(=O)OC(C)C(C)OC(=O)C=Cc1ccccc1 (centres unmarked) [compound 28]
[1]
  LD50 at 168 h: > 1000 mg/kg
Ddy male mice
  survival / anomaly after seven days: all the mice lived without any anomaly
ulcer; sc, subcutaneously, 5 rats
  inhibition in vivo at 200 mg/kg: 62%

## CCCCCCCCCCC(=O)OC(C)C(C)OC(=O)C(C#N)=Cc1ccccc1 (centres unmarked) [compound 48]
[1]
  LD50 at 168 h: > 1000 mg/kg
Ddy male mice
  survival / anomaly after seven days: all the mice lived without any anomaly
ulcer; po, orally, 4 rats
  inhibition in vivo at 200 mg/kg: 84%
ulcer; sc, 300 mg/kg, subcutaneously, 5 rats
  inhibition in vivo at 300 mg/kg: 96%

## CCCCCCCCCCCCCCCC(=O)OC(C)C(C)OC(=O)CCCCCCCCCCCCCCC (centres unmarked) [Compound No. 7]
ulcer; sc, subcutaneously, 5 rats
  inhibition in vivo at 200 mg/kg: 30%

## CCCCCCCCCCC(=O)OC(C)C(C)OC(=O)C=Cc1cc(OC)c(OC)c(OC)c1 (centres unmarked) [Compound No. 40]
ulcer; sc, subcutaneously, 5 rats
  inhibition in vivo at 200 mg/kg: 99%

## CCCCCCCCC(=O)OC(C)C(C)OC(=O)C(C#N)=Cc1ccccc1 (centres unmarked) [compound 46]
[1]
  LD50 at 168 h: > 1000 mg/kg
Ddy male mice
  survival / anomaly after seven days: all the mice lived without any anomaly
ulcer; sc, subcutaneously, 5 rats
  inhibition in vivo at 200 mg/kg: 56%

## CCCCCCCCCCC(=O)OC(C)C(C)OC(=O)CCc1ccccc1 (centres unmarked) [Compound No. 70]
[1]
  LD50 at 168 h: > 1000 mg/kg
Ddy male mice
  survival / anomaly after seven days: all the mice lived without any anomaly
ulcer; sc, subcutaneously, 5 rats
  inhibition in vivo at 200 mg/kg: 45.9%

## CCCCCCCC/C=C\CCCCCCCC(=O)OC(C)C(C)OC(=O)CCCCCCCCCC (centres unmarked) [compound 21]
[1]
  LD50 at 168 h: > 1000 mg/kg
Ddy male mice
  survival / anomaly after seven days: all the mice lived without any anomaly

## CCCCCCCCCCC(=O)OC(C)C(C)OC(=O)COc1ccccc1 (centres unmarked) [Compound No. 71]
[1]
  LD50 at 168 h: > 1000 mg/kg
Ddy male mice
  survival / anomaly after seven days: all the mice lived without any anomaly
ulcer; sc, subcutaneously, 5 rats
  inhibition in vivo at 200 mg/kg: 59.2%

## CCCCCCCCCCC(=O)OC(C)C(C)OC(=O)c1cc(OC)c(OC)c(OC)c1 (centres unmarked) [Compound No. 68]
[1]
  LD50 at 168 h: > 1000 mg/kg
Ddy male mice
  survival / anomaly after seven days: all the mice lived without any anomaly
ulcer; sc, subcutaneously, 5 rats
  inhibition in vivo at 200 mg/kg: 89.3%

## CCCCCC(=O)OC(C)C(C)OC(=O)c1ccc(OC)cc1 (centres unmarked) [compound 60]
[1]
  LD50 at 168 h: > 1000 mg/kg
Ddy male mice
  survival / anomaly after seven days: all the mice lived without any anomaly
ulcer; sc, subcutaneously, 5 rats
  inhibition in vivo at 200 mg/kg: 41.4%

## CCCCCCCCCC(=O)OC(C)C(C)OC(=O)CCCCCCCCC (centres unmarked) [Compound No. 3]
ulcer; sc, subcutaneously, 5 rats
  inhibition in vivo at 200 mg/kg: 50%

## CCCCCC(=O)OC(C)C(C)OC(=O)C(C)=Cc1ccccc1 (centres unmarked) [compound 54]
[1]
  LD50 at 168 h: > 1000 mg/kg
Ddy male mice
  survival / anomaly after seven days: all the mice lived without any anomaly
ulcer; sc, subcutaneously, 5 rats
  inhibition in vivo at 200 mg/kg: 87%

## CCCCCC(=O)OC(C)C(C)OC(=O)C=Cc1ccc(C)cc1 (centres unmarked) [Compound No. 31]
[1]
  LD50 at 168 h: > 1000 mg/kg
Ddy male mice
  survival / anomaly after seven days: all the mice lived without any anomaly
ulcer; sc, subcutaneously, 5 rats
  inhibition in vivo at 200 mg/kg: 91%

## CCCCCC=CCC=CCCCCCCCC(=O)OC(C)C(C)OC(=O)CCCCCCCC=CCC=CCCCCC (centres unmarked) [compound 15]
ulcer; sc, subcutaneously, 5 rats
  inhibition in vivo at 200 mg/kg: 47%

## CCCCCC(=O)OC(C)C(C)OC(=O)C=Cc1ccc(OC)cc1 (centres unmarked) [compound 34]
[1]
  LD50 at 168 h: > 1000 mg/kg
Ddy male mice
  survival / anomaly after seven days: all the mice lived without any anomaly
ulcer; sc, subcutaneously, 5 rats
  inhibition in vivo at 200 mg/kg: 75%

## coixenolide
tumor
  antitumor effect: has an antitumor effect

## CC(=Cc1ccccc1)C(=O)OC(C)C(C)OC(=O)C(C)=Cc1ccccc1 (centres unmarked) [compound 57]
[1]
  LD50 at 168 h: > 1000 mg/kg
Ddy male mice
  survival / anomaly after seven days: all the mice lived without any anomaly
ulcer; sc, subcutaneously, 5 rats
  inhibition in vivo at 200 mg/kg: 80%
